Values of other authors, collected in US6174531A, “Methods of preparation of bioginkgo” (priority 1998, dated 2001).
Read-outs that look alike come from different tables or passages of the source.

Experiments:
[1] = tested on: PAF platelet membrane receptor; settings: in vitro, literature
[2] = humans, literature
[3] = rats, literature

| Compound | specificity of inhibition of PAF binding to its platelet receptors [1] | half-life compared with ginkgolide A [2] | half-life compared with ginkgolide A [3] | IC50 ([1]; read-out: IC50, inhibition of PAF binding to its platelet receptors) |
| --- | --- | --- | --- | --- |
| C[C@@H]1C(=O)O[C@H]2C[C@@]34[C@H]5C[C@@H](C(C)(C)C)[C@]36[C@@H](OC(=O)[C@@H]6O)O[C@@]4(C(=O)O5)[C@]21O [ginkgolide A] | highly specific | – | – | – |
| CC1C(=O)OC2C(O)C34C5CC(C(C)(C)C)C36C(OC(=O)C6O)OC4(C(=O)O5)C12O (stereo not drawn) [ginkgolide B] | highly specific | longer half-life | longer half-life | ~100 nM |
| CC1C(=O)OC2C(O)C34C5OC(=O)C3(OC3OC(=O)C(O)C34C(C(C)(C)C)C5O)C12O (stereo not drawn) [ginkgolide C] | highly specific | – | – | – |
